27 compounds from EP4389749A1, “SUBSTITUTED 3,7-DIHYDRO-1H-PURINE-2,6-DIONES AND USE THEREOF” (invIOs GmbH, priority 2022, dated 2024) can be followed below.

The structures appear in SMILES notation.

Experiment [1] relates to CD4+ T-cells. Nature of the experiment: Immunostimulation assay with anti-CD3/28 stimulated T-cells, CD69 expression by flow cytometry. Type of experiment: cell-based, human. Conditions: T-cell; purified human CD4+ and CD8+ T-cells, 1 µg/ml anti-CD3, 1 µg/ml anti-CD28, 16 hours, surface FACS; read-out: EC50 CD4+. In a few lines: (§1)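 Human CD4+/CD8+ T-cells purified from buffy-coat PBMCs were stimulated with 1 µg/ml anti-CD3 and 1 µg/ml anti-CD28 plus compound (0.001–30 µM) for 16 h at 37 °C. CD69 measured by flow cytometry; DMSO set minimal, CD3/28 Dynabeads maximal activation; EC50 by variable-slope fit.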

Experiment [2] deals with CD8+ T-cells. The description is as above. Type of experiment: cell-based, human. Conditions: T-cell; purified human CD4+ and CD8+ T-cells, 1 µg/ml anti-CD3, 1 µg/ml anti-CD28, 16 hours, surface FACS; read-out: EC50 CD8+. An outline of the steps: as §1

Usually EC50 stands for the concentration at which the effect is half-maximal. In the case of `CC(O)Cn1c(=O)[nH]c(=O)c2c1nc(-c1ccc(OCc3ccccc3)c(C(F)(F)F)c1)n2C` (stereo not drawn) [Compound 98, 8-(4-(benzyloxy)-3-(trifluoromethyl)phenyl)-3-(2-hydroxypropyl)-7-methyl-3,7-dihydro-1H-purine-2,6-dione], the EC50 in experiment [1] and in experiment [2] was 0.1 to 0.5 µM each time.

For the compound `COc1cc(-c2nc3c(c(=O)[nH]c(=O)n3CC(C)O)n2C)ccc1OCc1ccc(F)c(Cl)c1` (stereo not drawn) [Compound 99, 8-(4-((3-chloro-4-fluorobenzyl)oxy)-3-methoxyphenyl)-3-(2-hydroxypropyl)-7-methyl-3,7-dihydro-1H-purine-2,6-dione], the EC50 in experiment [1] and in experiment [2] was 0.1 to 0.5 µM throughout.

As to `CC(CO)Cn1c(=O)[nH]c(=O)c2c1nc(-c1ccc(Oc3ccc(OC(F)(F)F)cc3)cc1)n2C` (stereo not drawn) [Compound 100, 3-(3-hydroxy-2-methylpropyl)-7-methyl-8-(4-(4-(trifluoromethoxy)phenoxy)phenyl)-3,7-dihydro-1H-purine-2,6-dione], the EC50 in experiment [1] and in experiment [2] was 0.1 to 0.5 µM in each case.

Consider `COc1cc(-c2nc3c(c(=O)[nH]c(=O)n3CC(C)O)n2C)ccc1OCc1cccc2ccncc12` (stereo not drawn) [Compound 101, 3-(2-hydroxypropyl)-8-(4-(isoquinolin-8-ylmethoxy)-3-methoxyphenyl)-7-methyl-3,7-dihydro-1H-purine-2,6-dione], for which the concentration giving a half-maximal response (EC50) in experiment [1] and in experiment [2] was 0.1 to 0.5 µM each time.

Turning to `Cc1ccc(COc2ccc(-c3nc4c(c(=O)[nH]c(=O)n4CC(O)C(F)(F)F)n3C)cc2F)cc1` (stereo not drawn) [Compound 102, 8-(3-fluoro-4-((4-methylbenzyl)oxy)phenyl)-7-methyl-3-(3,3,3-trifluoro-2-hydroxypropyl)-3,7-dihydro-1H-purine-2,6-dione], the half-maximal effective concentration (EC50) was less than 0.1 µM in experiment [1] and 0.1 to 0.5 µM in experiment [2].

Turning to `COc1cc(-c2nc3c(c(=O)[nH]c(=O)n3CC(C)O)n2C)ccc1OCc1cccc2ncccc12` (stereo not drawn) [Compound 113, 3-(2-hydroxypropyl)-8-(3-methoxy-4-(quinolin-5-ylmethoxy)phenyl)-7-methyl-3,7-dihydro-1H-purine-2,6-dione], the EC50 is 0.5 to 1 µM in experiment [1] and 1 to 5 µM in experiment [2].

Take `COc1ccc(COc2ccc(-c3nc4c(c(=O)[nH]c(=O)n4CC(C)O)n3C)cc2F)cc1` (stereo not drawn) [Compound 114, 8-(3-fluoro-4-((4-methoxybenzyl)oxy)phenyl)-3-(2-hydroxypropyl)-7-methyl-3,7-dihydro-1H-purine-2,6-dione]: the EC50 in experiment [1] and in experiment [2] was 1 to 5 µM each time.

Turning to `Cc1ccc(COc2ccc(-c3nc4c(c(=O)[nH]c(=O)n4CC(C)O)n3C)cc2F)cc1` (stereo not drawn) [Compound 115, 8-(3-fluoro-4-((4-methylbenzyl)oxy)phenyl)-3-(2-hydroxypropyl)-7-methyl-3,7-dihydro-1H-purine-2,6-dione], the concentration for a half-maximal effect (EC50) in experiment [1] and in experiment [2] was 0.5 to 1 µM each time.

Turning to `Cn1c(-c2ccc(OCc3ccccc3)c(OC(F)(F)F)c2)nc2c1c(=O)[nH]c(=O)n2CC(O)CO` (stereo not drawn) [Compound 116, 8-(4-(benzyloxy)-3-(trifluoromethoxy)phenyl)-3-(2,3-dihydroxypropyl)-7-methyl-3,7-dihydro-1H-purine-2,6-dione], the EC50 in experiment [1] and in experiment [2] was 0.5 to 1 µM in each case.

Take `Cn1c(-c2ccc(OCc3ccccc3)c(OC(F)(F)F)c2)nc2c1c(=O)[nH]c(=O)n2CC(O)CF` (stereo not drawn) [Compound 117, 8-(4-(benzyloxy)-3-(trifluoromethoxy)phenyl)-3-(3-fluoro-2-hydroxypropyl)-7-methyl-3,7-dihydro-1H-purine-2,6-dione]: the EC50 in experiment [1] and in experiment [2] was less than 0.1 µM throughout.

`CC(CO)Cn1c(=O)[nH]c(=O)c2c1nc(-c1ccc(OCc3ccccc3)c(OC(F)(F)F)c1)n2C` (stereo not drawn) [Compound 118, 8-(4-(benzyloxy)-3-(trifluoromethoxy)phenyl)-3-(3-hydroxy-2-methylpropyl)-7-methyl-3,7-dihydro-1H-purine-2,6-dione]: the concentration for a half-maximal effect (EC50) was less than 0.1 µM in experiment [1] and 0.1 to 0.5 µM in experiment [2].

Regarding `Cn1c(-c2ccc(OCc3ccccc3)c(OC(F)(F)F)c2)nc2c1c(=O)[nH]c(=O)n2CC(O)C(F)(F)F` (stereo not drawn) [Compound 119, 8-(4-(benzyloxy)-3-(trifluoromethoxy)phenyl)-7-methyl-3-(3,3,3-trifluoro-2-hydroxypropyl)-3,7-dihydro-1H-purine-2,6-dione], the half-maximal effective concentration (EC50) in experiment [1] and in experiment [2] was less than 0.1 µM each time.

As for `CC(O)Cn1c(=O)[nH]c(=O)c2c1nc(-c1ccc(OCc3ccccc3)c(OC(F)(F)F)c1)n2C` (stereo not drawn) [Compound 120, 8-(4-(benzyloxy)-3-(trifluoromethoxy)phenyl)-3-(2-hydroxypropyl)-7-methyl-3,7-dihydro-1H-purine-2,6-dione], the EC50 in experiment [1] and in experiment [2] was 0.1 to 0.5 µM in each case.

As for `COc1cc(-c2nc3c(c(=O)[nH]c(=O)n3CC(O)C(F)(F)F)n2C)ccc1OCc1ccc(C)cc1` (stereo not drawn) [Compound 121, 8-(3-methoxy-4-((4-methylbenzyl)oxy)phenyl)-7-methyl-3-(3,3,3-trifluoro-2-hydroxypropyl)-3,7-dihydro-1H-purine-2,6-dione], the EC50 in experiment [1] and in experiment [2] was less than 0.1 µM throughout.

Consider `Cc1ccc(COc2ccc(-c3nc4c(c(=O)[nH]c(=O)n4CC(C)O)n3C)cc2OC(F)(F)F)cc1` (stereo not drawn) [Compound 122, 3-(2-hydroxypropyl)-7-methyl-8-(4-((4-methylbenzyl)oxy)-3-(trifluoromethoxy)phenyl)-3,7-dihydro-1H-purine-2,6-dione], for which the concentration for a half-maximal effect (EC50) in experiment [1] and in experiment [2] was less than 0.1 µM throughout.

`Cc1ccc(COc2ccc(-c3nc4c(c(=O)[nH]c(=O)n4CC(C)O)n3C)cc2C(F)(F)F)cc1` (stereo not drawn) [Compound 123, 3-(2-hydroxypropyl)-7-methyl-8-(4-((4-methylbenzyl)oxy)-3-(trifluoromethyl)phenyl)-3,7-dihydro-1H-purine-2,6-dione]: the EC50 in experiment [1] and in experiment [2] was less than 0.1 µM each time.

For the compound `Cc1cc(-c2nc3c(c(=O)[nH]c(=O)n3CC(C)O)n2C)ccc1OCc1ccccc1` (stereo not drawn) [Compound 124, 8-(4-(benzyloxy)-3-methylphenyl)-3-(2-hydroxypropyl)-7-methyl-3,7-dihydro-1H-purine-2,6-dione], the EC50 in experiment [1] and in experiment [2] was 0.1 to 0.5 µM each time.

Consider `COc1cc(-c2nc3c(c(=O)[nH]c(=O)n3CC(C)O)n2C)ccc1OCc1ccc(C)cc1` (stereo not drawn) [Compound 125, 3-(2-hydroxypropyl)-8-(3-methoxy-4-((4-methylbenzyl)oxy)phenyl)-7-methyl-3,7-dihydro-1H-purine-2,6-dione], for which the EC50 in experiment [1] and in experiment [2] was 0.1 to 0.5 µM each time.

With `COc1ccc(COc2ccc(-c3nc4c(c(=O)[nH]c(=O)n4CC(C)O)n3C)cc2OC)cc1F` (stereo not drawn) [Compound 126, 8-(4-((3-fluoro-4-methoxybenzyl)oxy)-3-methoxyphenyl)-3-(2-hydroxypropyl)-7-methyl-3,7-dihydro-1H-purine-2,6-dione], the EC50 in experiment [1] is 0.5 to 1 µM; in experiment [2], 0.1 to 0.5 µM.

Regarding `COc1cc(COc2ccc(-c3nc4c(c(=O)[nH]c(=O)n4CC(C)O)n3C)cc2OC)ccc1F` (stereo not drawn) [Compound 127, 8-(4-((4-fluoro-3-methoxybenzyl)oxy)-3-methoxyphenyl)-3-(2-hydroxypropyl)-7-methyl-3,7-dihydro-1H-purine-2,6-dione], the EC50 in experiment [1] and in experiment [2] was 0.5 to 1 µM each time.

In the case of `COc1ccc(COc2ccc(-c3nc4c(c(=O)[nH]c(=O)n4CC(C)O)n3C)cc2OC)cc1` (stereo not drawn) [Compound 128, 3-(2-hydroxypropyl)-8-(3-methoxy-4-((4-methoxybenzyl)oxy)phenyl)-7-methyl-3,7-dihydro-1H-purine-2,6-dione], the EC50 in experiment [1] and in experiment [2] was 1 to 5 µM in each case.

`CC(O)Cn1c(=O)[nH]c(=O)c2c1nc(-c1ccc(Oc3ccc(C(F)(F)F)cc3)cc1)n2C` (stereo not drawn) [Compound 136, 3-(2-hydroxypropyl)-7-methyl-8-(4-(4-(trifluoromethyl)phenoxy)phenyl)-3,7-dihydro-1H-purine-2,6-dione]: the EC50 in experiment [1] and in experiment [2] was 1 to 5 µM in each case.

In the case of `CC(O)Cn1c(=O)[nH]c(=O)c2c1nc(-c1ccc(Oc3ccc(Cl)cc3)cc1)n2C` (stereo not drawn) [Compound 138, 8-(4-(4-chlorophenoxy)phenyl)-3-(2-hydroxypropyl)-7-methyl-3,7-dihydro-1H-purine-2,6-dione], the EC50 in experiment [1] and in experiment [2] was 1 to 5 µM in each case.

`CC(O)Cn1c(=O)[nH]c(=O)c2c1nc(-c1ccc(Oc3ccccc3)c(Cl)c1)n2C` (stereo not drawn) [Compound 141, 8-(3-chloro-4-phenoxyphenyl)-3-(2-hydroxypropyl)-7-methyl-3,7-dihydro-1H-purine-2,6-dione]: the EC50 in experiment [1] and in experiment [2] was 1 to 5 µM in each case.

As to `Cn1c(-c2ccc(Oc3ccc(Cl)cc3)c(Cl)c2)nc2c1c(=O)[nH]c(=O)n2CC(O)CF` (stereo not drawn) [Compound 147, 8-(3-chloro-4-(4-chlorophenoxy)phenyl)-3-(3-fluoro-2-hydroxypropyl)-7-methyl-3,7-dihydro-1H-purine-2,6-dione], the EC50 in experiment [1] and in experiment [2] was less than 0.1 µM in each case.

For `Cn1c(-c2ccc(Oc3ccc(OC(F)F)cc3)c(Cl)c2)nc2c1c(=O)[nH]c(=O)n2CC(O)CF` (stereo not drawn) [Compound 148, 8-(3-chloro-4-(4-(difluoromethoxy)phenoxy)phenyl)-3-(3-fluoro-2-hydroxypropyl)-7-methyl-3,7-dihydro-1H-purine-2,6-dione], the EC50 in experiment [1] and in experiment [2] was 0.1 to 0.5 µM each time.

As to `Cn1c(-c2ccc(Oc3ccc(OC(F)(F)F)cc3)c(F)c2)nc2c1c(=O)[nH]c(=O)n2CC(O)CF` (stereo not drawn) [Compound 149, 3-(3-fluoro-2-hydroxypropyl)-8-(3-fluoro-4-(4-(trifluoromethoxy)phenoxy)phenyl)-7-methyl-3,7-dihydro-1H-purine-2,6-dione], the EC50 in experiment [1] and in experiment [2] was 0.1 to 0.5 µM in each case.
